Assay results reported in patent US12624018B1, “Inhibitors of RIPK2 and medical uses thereof” (Odyssey Therapeutics, Inc., priority 2022, dated 2026).

target: T1, RIPK2 enzyme (Homo sapiens, UniProt O43353); experiment: RIPK2 inhibition (ADP-Glo Kinase Assay); type: biochemical; conditions: RIPK2 5 nM, ATP 150 μM, MBP substrate, read-out: RIPK2 IC50
T1 construct: purchased Carna 09-128
Method in brief: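 Swine MBP substrate; compound and 5 nM RIPK2 first mixed for 30 min at room temperature; buffer pH 7.5 HEPES 50 mM with 10 mM MgCl2, 2 mM DTT, 1 mM EGTA, Brij-35, BSA.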

T1 sequence (O43353 1-299 limits assumed): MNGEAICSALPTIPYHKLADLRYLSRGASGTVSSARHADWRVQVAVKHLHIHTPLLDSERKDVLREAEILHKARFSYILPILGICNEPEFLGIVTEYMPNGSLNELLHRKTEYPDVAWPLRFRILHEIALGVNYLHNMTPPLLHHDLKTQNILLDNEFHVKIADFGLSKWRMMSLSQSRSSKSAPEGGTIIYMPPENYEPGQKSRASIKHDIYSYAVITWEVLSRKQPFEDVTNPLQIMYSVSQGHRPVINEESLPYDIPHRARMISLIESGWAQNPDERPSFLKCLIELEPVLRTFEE

Compound | IC50
COC(C)(C)c1ccc2nccc(Oc3ccc(CC(=O)Nc4cnn(C(C)(C)C)c4)c(F)c3C)c2c1 [Compound 303, N-(1-(tert-butyl)-1H-pyrazol-4-yl)-2-(2-fluoro-4-((6-(2-methoxypropan-2-yl)quinolin-4-yl)oxy)-3-methylphenyl)acetamide] | < 2.5 nM
Cc1cc(CC(=O)Nc2cnn(C(C)(C)C)c2)ccc1Oc1ccnc2ccc(OC3CCC(=O)NC3)cc12 (centres unmarked) [Compound 307, N-(1-(tert-butyl)-1H-pyrazol-4-yl)-2-(3-methyl-4-((6-((6-oxopiperidin-3-yl)oxy)quinolin-4-yl)oxy)phenyl) acetamide] | < 2.5 nM
Cc1cc(CC(=O)Nc2cnn(C(C)(C)C)c2)ccc1Oc1ccnc2ccc(OC3CCCNC3=O)cc12 (centres unmarked) [Compound 308, N-(1-(tert-butyl)-1H-pyrazol-4-yl)-2-(3-methyl-4-((6-((2-oxopiperidin-3-yl)oxy)quinolin-4-yl)oxy)phenyl) acetamide] | < 2.5 nM
Cc1cc(CC(=O)Nc2cnn(C(C)(C)C)c2)ccc1Oc1ccnc2ccc(S(=O)(=O)CC(C)(C)O)cc12 [Compound 309, N-(1-(tert-butyl)-1H-pyrazol-4-yl)-2-(4-((6-((2-hydroxy-2-methylpropyl)sulfonyl)quinolin-4-yl)oxy)-3-methylphenyl)acetamide] | < 2.5 nM
Cc1cc(CC(=O)Nc2cnn(C(C)(C)C)c2)ccc1Oc1ccnc2ccc(S(=O)(=O)C(C)(C)CO)cc12 [Compound 310, N-(1-(tert-butyl)-1H-pyrazol-4-yl)-2-(4-((6-((1-hydroxy-2-methylpropan-2-yl)sulfonyl)quinolin-4-yl)oxy)-3-methylphenyl)acetamide] | < 2.5 nM
Cc1cc(CC(=O)Nc2cnn(C(C)(C)C)c2)ccc1Oc1ccnc2ccc(S(=O)(=O)C3CCNCC3)cc12 [Compound 311, N-(1-(tert-butyl)-1H-pyrazol-4-yl)-2-(3-methyl-4-((6-(piperidin-4-ylsulfonyl)quinolin-4-yl)oxy)phenyl)acetamide] | < 2.5 nM
Cc1c(Oc2ccnc3ccc(S(=O)(=O)C4CCNCC4)cc23)ccc(CC(=O)Nc2cnn(C(C)(C)C)c2)c1F [Compound 312, N-(1-(tert-butyl)-1H-pyrazol-4-yl)-2-(2-fluoro-3-methyl-4-((6-(piperidin-4-ylsulfonyl)quinolin-4-yl)oxy)phenyl)acetamide] | < 2.5 nM
Cc1cc(CC(=O)Nc2cnn(C(C)(C)C)c2)c(F)cc1Oc1ccnc2ccc(S(=O)(=O)C3CCNCC3)cc12 [Compound 313, N-(1-(tert-butyl)-1H-pyrazol-4-yl)-2-(2-fluoro-5-methyl-4-((6-(piperidin-4-ylsulfonyl)quinolin-4-yl)oxy)phenyl)acetamide] | < 2.5 nM
Cc1cc(CC(=O)Nc2cnn(C(C)(C)C)c2)ccc1Oc1ccnc2ccc(S(=O)(=O)C3CNC3)cc12 [Compound 314, 2-(4-((6-(azetidin-3-ylsulfonyl)quinolin-4-yl)oxy)-3-methylphenyl)-N-(1-(tert-butyl)-1H-pyrazol-4-yl)acetamide] | < 2.5 nM
Cc1c(Oc2ccnc3ccc(S(=O)(=O)C4CNC4)cc23)ccc(CC(=O)Nc2cnn(C(C)(C)C)c2)c1F [Compound 315, 2-(4-((6-(azetidin-3-ylsulfonyl)quinolin-4-yl)oxy)-2-fluoro-3-methylphenyl)-N-(1-(tert-butyl)-1H-pyrazol-4-yl)acetamide] | < 2.5 nM
Cc1cc(CC(=O)Nc2cnn(C(C)(C)C)c2)c(F)cc1Oc1ccnc2ccc(S(=O)(=O)C3CNC3)cc12 [Compound 316, 2-(4-((6-(azetidin-3-ylsulfonyl)quinolin-4-yl)oxy)-2-fluoro-5-methylphenyl)-N-(1-(tert-butyl)-1H-pyrazol-4-yl)acetamide] | < 2.5 nM
Cc1cc(CC(=O)Nc2cnn(C(C)(C)C)c2)ccc1Oc1ccnc2ccc(N3CCC(F)(F)C3=O)cc12 [Compound 325, N-(1-(tert-butyl)-1H-pyrazol-4-yl)-2-(4-((6-(3,3-difluoro-2-oxopyrrolidin-1-yl)quinolin-4-yl)oxy)-3-methylphenyl) acetamide] | < 2.5 nM
Cc1cc(CC(=O)Nc2cc(C(C)(C)CO)n[nH]2)ccc1Oc1ccnc2ccc(S(C)(=O)=O)cc12 [Compound 328, N-(5-(1-hydroxy-2-methylpropan-2-yl)-1H-pyrazol-3-yl)-2-(3-methyl-4-((6-(methylsulfonyl)quinolin-4-yl)oxy)phenyl)acetamide] | < 2.5 nM
Cc1c(Oc2ccnc3ccc(S(C)(=O)=O)cc23)ccc(CC(=O)Nc2cc(C(C)(C)CO)n[nH]2)c1F [Compound 329, 2-(2-fluoro-3-methyl-4-((6-(methylsulfonyl)quinolin-4-yl)oxy)phenyl)-N-(5-(1-hydroxy-2-methylpropan-2-yl)-1H-pyrazol-3-yl)acetamide] | < 2.5 nM
COC(C)(C)c1cc(NC(=O)Cc2ccc(Oc3ccnc4ccc(S(C)(=O)=O)cc34)c(C)c2)[nH]n1 [Compound 330, N-(5-(2-methoxypropan-2-yl)-1H-pyrazol-3-yl)-2-(3-methyl-4-((6-(methylsulfonyl)quinolin-4-yl)oxy)phenyl)acetamide] | < 2.5 nM
COC(C)(C)c1cc(NC(=O)Cc2ccc(Oc3ccnc4ccc(S(C)(=O)=O)cc34)c(C)c2F)[nH]n1 [Compound 331, 2-(2-fluoro-3-methyl-4-((6-(methylsulfonyl)quinolin-4-yl)oxy)phenyl)-N-(5-(2-methoxypropan-2-yl)-1H-pyrazol-3-yl)acetamide] | < 2.5 nM
Cc1cc(CC(=O)Nc2cnn(C(C)(C)C)c2)ccc1Oc1ccnc2ccc(S(=O)(=O)CC3CNC3)cc12 [Compound 332, 2-(4-((6-((azetidin-3-ylmethyl)sulfonyl)quinolin-4-yl)oxy)-3-methylphenyl)-N-(1-(tert-butyl)-1H-pyrazol-4-yl)acetamide] | < 2.5 nM
Cc1c(Oc2ccnc3ccc(C(=O)O)cc23)ccc(CC(=O)Nc2cnn(C(C)(C)C)c2)c1F [Compound 333, 4-(4-(2-((1-(tert-butyl)-1H-pyrazol-4-yl)amino)-2-oxoethyl)-3-fluoro-2-methyl-phenoxy) quinoline-6-carboxylic acid] | < 2.5 nM
Cc1c(Oc2ccnc3ccc(C(N)=O)cc23)ccc(CC(=O)Nc2cnn(C(C)(C)C)c2)c1F [Compound 334, 4-(4-(2-((1-(tert-butyl)-1H-pyrazol-4-yl)amino)-2-oxoethyl)-3-fluoro-2-methyl-phenoxy) quinoline-6-carboxamide] | < 2.5 nM
CNC(=O)c1ccc2nccc(Oc3ccc(CC(=O)Nc4cnn(C(C)(C)C)c4)c(F)c3C)c2c1 [Compound 335, 4-(4-(2-((1-(tert-butyl)-1H-pyrazol-4-yl)amino)-2-oxoethyl)-3-fluoro-2-methyl-phenoxy)-N-methyl-quinoline-6-carboxamide] | < 2.5 nM
Cc1c(Oc2ccnc3ccc(C(=O)N(C)C)cc23)ccc(CC(=O)Nc2cnn(C(C)(C)C)c2)c1F [Compound 336, 4-(4-(2-((1-(tert-butyl)-1H-pyrazol-4-yl)amino)-2-oxoethyl)-3-fluoro-2-methyl-phenoxy)-N,N-dimethyl-quinoline-6-carboxamide] | < 2.5 nM
Cc1c(Oc2ccnc3ccc(C(=O)NCC(F)(F)F)cc23)ccc(CC(=O)Nc2cnn(C(C)(C)C)c2)c1F [Compound 337, 4-(4-(2-((1-(tert-butyl)-1H-pyrazol-4-yl)amino)-2-oxoethyl)-3-fluoro-2-methyl-phenoxy)-N-(2,2,2-trifluoroethyl) quinoline-6-carboxamide] | < 2.5 nM
CCNC(=O)c1ccc2nccc(Oc3ccc(CC(=O)Nc4cnn(C(C)(C)C)c4)c(F)c3C)c2c1 [Compound 338, 4-(4-(2-((1-(tert-butyl)-1H-pyrazol-4-yl)amino)-2-oxoethyl)-3-fluoro-2-methyl-phenoxy)-N-ethylquinoline-6-carboxamide] | < 2.5 nM
Cc1c(Oc2ccnc3ccc(C(=O)NCCO)cc23)ccc(CC(=O)Nc2cnn(C(C)(C)C)c2)c1F [Compound 339, 4-(4-(2-((1-(tert-butyl)-1H-pyrazol-4-yl)amino)-2-oxoethyl)-3-fluoro-2-methyl-phenoxy)-N-(2-hydroxyethyl) quinoline-6-carboxamide] | < 2.5 nM
Cc1c(Oc2ccnc3ccc(C(=O)N(C)CCO)cc23)ccc(CC(=O)Nc2cnn(C(C)(C)C)c2)c1F [Compound 340, 4-(4-(2-((1-(tert-butyl)-1H-pyrazol-4-yl)amino)-2-oxoethyl)-3-fluoro-2-methyl-phenoxy)-N-(2-hydroxyethyl)-N-methyl-quinoline-6-carboxamide] | < 2.5 nM
Cc1c(Oc2ccnc3ccc(C(=O)N(CCO)CCO)cc23)ccc(CC(=O)Nc2cnn(C(C)(C)C)c2)c1F [Compound 341, 4-(4-(2-((1-(tert-butyl)-1H-pyrazol-4-yl)amino)-2-oxoethyl)-3-fluoro-2-methyl-phenoxy)-N,N-bis(2-hydroxyethyl) quinoline-6-carboxamide] | < 2.5 nM
COCCNC(=O)c1ccc2nccc(Oc3ccc(CC(=O)Nc4cnn(C(C)(C)C)c4)c(F)c3C)c2c1 [Compound 342, 4-(4-(2-((1-(tert-butyl)-1H-pyrazol-4-yl)amino)-2-oxoethyl)-3-fluoro-2-methyl-phenoxy)-N-(2-methoxyethyl) quinoline-6-carboxamide] | < 2.5 nM
COCCN(C)C(=O)c1ccc2nccc(Oc3ccc(CC(=O)Nc4cnn(C(C)(C)C)c4)c(F)c3C)c2c1 [Compound 343, 4-(4-(2-((1-(tert-butyl)-1H-pyrazol-4-yl)amino)-2-oxoethyl)-3-fluoro-2-methyl-phenoxy)-N-(2-methoxyethyl)-N-methyl-quinoline-6-carboxamide] | < 2.5 nM
Cc1c(Oc2ccnc3ccc(C(=O)N4CCC4)cc23)ccc(CC(=O)Nc2cnn(C(C)(C)C)c2)c1F [Compound 344, 2-(4-((6-(azetidine-1-carbonyl)quinolin-4-yl)oxy)-2-fluoro-3-methyl-phenyl)-N-(1-(tert-butyl)-1H-pyrazol-4-yl)acetamide] | < 2.5 nM
